Assay results taken from publication PMC11357661, “Gaining Insight into Mitochondrial Targeting: AUTAC-Biguanide as an Anticancer Agent” (Molecules, 2024).
Where two headings read alike, the source gives them in different places.

Columns and labels:
[1] = tested on: KP4 pancreatic cancer cells; experiment: Cell proliferation assay (crystal violet), EC50 determination; type: cell-based; conditions: for impact on the growth of cancer cells: KP4 and PANC1
Method: (§1) Materials and methods for in vitro experiments: Absorbance measurements for EC50 determination were performed using a SpectraMax 190 microplates reader from Molecular Devices. […] Statistical analyses were also performed using the PRISM software, using a one-way ANOVA test. Protein concentrations were determined using a Nanodrop 2000c spectrophotometer from Thermo Scientific (Waltham, MA, USA). A ChemiDoc MP Imaging System from BIO-RAD (Hercules, CA, USA) was used for imaging and analyzing Western blots. Resulting data were treated with Image Lab software (version 6.1).
(§2) Cells were seeded at a density of 1 × 10^3 cells per well for KP4 and PANC1, 4 × 10^3 for IMR90, and 2 × 10^3 for hTERT-HPNE in 96 well plates one day prior to treatments with vehicle and compounds for 72 h. The culture medium was removed. Cells were washed twice with cold PBS, and 1% glutaraldehyde was added to the wells for fixation for 10 min. Cells were then washed with water, stained with 0.2% crystal violet for 30 min at room temperature, washed with water, and then dried. The adherent crystal violet was solubilized in 10% acetic acid and the absorbance was read at a wavelength of 590 nm for the calculation of the cell viability.

[2] = tested on: IMR90 (lung fibroblasts, healthy cells); experiment: as above; type: cell-based; conditions: for EC50: Homo sapiens, IMR-90, 72 h of treatment, mean ± SD; for effect on healthy cell line IMR90 (toxicity): at the concentrations examined
Method: (§3) Materials and methods for in vitro experiments: Absorbance measurements for EC50 determination were performed using a SpectraMax 190 microplates reader from Molecular Devices. Resulting data were analyzed with PRISM software (version 10.3.0) using curve fitting with non-linear regression (log(inhibitor) vs. response—variable slope (four parameters)). Statistical analyses were also performed using the PRISM software, using a one-way ANOVA test. Protein concentrations were determined using a Nanodrop 2000c spectrophotometer from Thermo Scientific (Waltham, MA, USA). A ChemiDoc MP Imaging System from BIO-RAD (Hercules, CA, USA) was used for imaging and analyzing Western blots. Resulting data were treated with Image Lab software (version 6.1).
as §2

[3] = tested on: PANC1 pancreatic cancer cells; experiment: as above; type: cell-based; conditions: Homo sapiens, PANC-1
Method: as §3, §2

LC3-II in KP4 cells = experiment: Immunoblot of LC3-I and LC3-II protein levels (autophagy); type: cell-based; conditions: KP4, 24 h; for LC3-II level: relative to DMSO, metformin 200 µM and 2 mM, 7 200 µM, 6 100 and 200 µM
Method: Immunoblot analysis: For the protein degradation assay, cells were seeded at a density of 1 × 10^5 cells per well in 6-well plates overnight, and then treated with vehicle and compounds for 24 h. The culture medium was removed. […] Equal amounts of protein were separated via sodium dodecyl sulfate-polyacrylamide gel electrophoresis (SDS-PAGE) and transferred to nitrocellulose membranes. […] Membranes were washed again with TBST and incubated with the primary antibody overnight at 4 °C. After being washed with TBST three times, the membranes were incubated with the secondary antibody for 1 h. After being washed with TBST three times, membranes were visualized using chemiluminescence using a Western Lightning™ Plus Chemiluminescence Reagent.

[4] = tested on: OXPHOS proteins (vATP5A, UQCR2, SDHB, COXII, NDUFB8) in KP4 cells; experiment: Immunoblot of OXPHOS mitochondrial respiratory chain proteins; type: cell-based; conditions: KP4, 24 h of treatment
Method: Immunoblot analysis: For the protein degradation assay, cells were seeded at a density of 1 × 10^5 cells per well in 6-well plates overnight, and then treated with vehicle and compounds for 24 h. The culture medium was removed. Cells were washed twice with cold PBS and lysed with LAEMMLI 2X (BIO-RAD, Hercules, CA, USA, 4% SDS, 20% glycerol, 0.125 M Tris-HCl (pH 6.8)). Equal amounts of protein were separated via sodium dodecyl sulfate-polyacrylamide gel electrophoresis (SDS-PAGE) and transferred to nitrocellulose membranes. […] Membranes were washed again with TBST and incubated with the primary antibody overnight at 4 °C. After being washed with TBST three times, the membranes were incubated with the secondary antibody for 1 h. After being washed with TBST three times, membranes were visualized using chemiluminescence using a Western Lightning™ Plus Chemiluminescence Reagent.

[5] = tested on: mitochondria in KP4 cells; experiment: Cell fluorescence assay: mitochondrial morphology by MitoTracker Deep Red FM confocal microscopy; type: cell-based; conditions: for mitochondrial morphology (MTDR): metformin 2 mM, 7 1 mM, 6 50-200 µM
Method: Cell fluorescence assay: KP4 cells were seeded at a density of 8 × 10^4 cells per well on top of microscope cover glasses in 6-well plates overnight. They were then treated with vehicle or the studied compounds for 24 h. The culture medium was refreshed with a solution of the MitoTracker® Deep Red FM (100 nM in DMEM). After 30 min at 37 °C, the medium was removed. Cells were washed twice with PBS and a solution of 4% paraformaldehyde was added into the wells for fixation for 10 min. Cells were washed again three times with 0.1 M glycine in PBS. A drop of mounting medium for fluorescence with DAPI was used to adhere cover glasses to microscope slides.

[6] = tested on: mitochondria (TOMM20) in KP4 cells; experiment: Immunofluorescence assay of TOMM20 (mitochondrial morphology); type: cell-based; conditions: KP4, 24 h; compound 6 200 µM, metformin 2 mM
Method: Immunofluorescence assay: KP4 cells were seeded at a density of 8 × 10^4 cells per well on top of microscope cover glasses in 6-well plates overnight. They were then treated with vehicle or the studied compounds for 24 h. The culture medium was removed, and cells were washed three times with cold PBS. A solution of 4% paraformaldehyde was added into the wells for fixation for 10 min. Cells were washed again three times with 0.1 M glycine in PBS, then incubated with a solution of 3% BSA and 0.2% […] in PBS for 5 min at room temperature. Cells were washed again three times with a solution of 3% BSA in PBS, then incubated overnight with the primary antibody TOMM20 (1:100 in PBS, pH 7.4, 3% BSA). Cells were washed three times with 3% BSA in PBS and incubated for 1 h with the secondary antibody AF488 (1:2000 in PBS, pH 7.4, 3% BSA). Cells were finally washed three times with 3% BSA in PBS. A drop of mounting medium for fluorescence with DAPI was used to adhere cover glasses to microscope slides.
Antibodies: • I. Tom20 Antibody (F-10) #sc-17764 (Santa Cruz Biotechnology, Dallas, TX, USA): 1:100, 3% BSA in 1X PBS; • II. Goat anti-Mouse IgG (H + L) Highly Cross-Adsorbed Secondary Antibody, Alexa Fluor™ 488 #A-11029 (ThermoFisher/Invitrogen, Waltham, MA, USA): 1:2000, 3% BSA in 1X PBS.

[7] = tested on: hTERT-HPNE (immortalized pancreatic cells, healthy cells); experiment: Cell proliferation assay (crystal violet), EC50 determination; type: cell-based, Human; conditions: for EC50: Homo sapiens, 72 h of treatment, mean ± SD; for effect on healthy cell line hTERT-HPNE (toxicity): at the concentrations examined
Method: as §1
Cell Lines: Human pancreatic normal epithelial (HPNE hTERT) cells were obtained from Dr. M. Ouellette (University of Nebraska Medical Center). IMR90 was obtained from Coriell Institute (I90-79). PANC1 was obtained from ATCC and KP4 from the Massachusetts General Hospital Center for Molecular Therapeutics (CMT), courtesy of Dr. Bardeesy. […] All cell lines tested negative for mycoplasma contamination. No unpublished de novo cell lines were used.
as §2

[8] = Homo sapiens, PANC-1, KP4 and PANC1, text summary, read-out: median effective concentration / concentration of toxic activity on pancreatic cancer cell lines
[9] = Pancreatic cancer cell, 72 h of treatment, mean ± SD, read-out: EC50 KP4
[10] = Pancreatic cancer cell, in Figure 2, read-out: EC50 KP4 (Figure 2)
[11] = 72 h of treatment, mean ± SD, read-out: EC50 PANC1

CC(=O)NC(CSc1nc2c(=O)[nH]c(N)nc2n1Cc1ccc(F)cc1)C(=O)NCCCCCCNC(=N)NC(=N)N.O=CO (stereo not drawn) [compound 6]
EC50 [1, 8]: ~100 µM | EC50 [1, 9]: 100 ± 30 µM | EC50 [1, 10]: 74 µM | selectivity index (SI) ([1]; cancer cells over healthy cells, 72 h of treatment): >10 | EC50 [2]: > 1000 µM | effect on healthy cell line IMR90 (toxicity) [2]: no adverse impact | EC50 [3, 11]: 150 ± 30 µM | EC50 ([3]; in Figure 2, read-out: EC50 PANC1 (Figure 2)): 103 µM | effect on lysosomal degradation of LC3B (LC3-II with and without chloroquine) (LC3-II in KP4 cells; in the presence of chloroquine): does not affect the degradation of LC3B | LC3-II level (LC3-II in KP4 cells): mild increase in LC3-II levels | levels of OXPHOS mitochondrial respiratory chain proteins [4]: decrease in complex I and complex IV mitochondrial respiratory chain proteins | cells displaying a fragmented or punctate mitochondrial network ([5]; KP4, 100 µM, 24 h of treatment, MTDR): more than 50% | cells maintaining a filamentous network ([5]; KP4, 200 µM (doubling of 100 µM), 24 h, MTDR): < 10% | MTDR fluorescence intensity ([5]; KP4, 24 h): decrease in fluorescence intensity | mitochondrial morphology (MTDR) ([5]; KP4, 24 h): punctate configuration | mitochondrial morphology (TOMM20 immunofluorescence) [6]: majority of cells assumed a punctate appearance | EC50 [7]: > 1000 µM | effect on healthy cell line hTERT-HPNE (toxicity) [7]: no adverse impact

CN(C)C(=N)N=C(N)N [Met., Metformin, reference compound]
EC50 [1, 8]: 1000 to 4000 µM | EC50 [1, 9]: 1490 ± 550 µM | EC50 [1, 10]: 2210 µM | EC50 [2]: > 20000 µM | effect on healthy cell line IMR90 (toxicity) [2]: no noticeable effect | EC50 [3, 11]: 3130 ± 1410 µM | levels of OXPHOS mitochondrial respiratory chain proteins [4]: did not appear to affect the levels | mitochondrial morphology (TOMM20 immunofluorescence) [6]: mild fragmentation of the network | EC50 [7]: > 20000 µM

CCCCCCNC(=O)C(CSc1nc2c(=O)[nH]c(N)nc2n1Cc1ccc(F)cc1)NC(C)=O (stereo not drawn) [compound 7]
impact on the growth of cancer cells [1]: no discernible impact | EC50 [1, 9]: > 1000 µM | EC50 [2]: > 1000 µM | effect on healthy cell line IMR90 (toxicity) [2]: without exhibiting toxicity | EC50 [3, 11]: > 1000 µM | LC3-II level (LC3-II in KP4 cells): elevate LC3-II levels | levels of OXPHOS mitochondrial respiratory chain proteins [4]: no effect on OXPHOS proteins | mitochondrial morphology (MTDR) ([5]; KP4, 24 h): predominantly formed a filamentous network | EC50 [7]: 110 ± 20 µM | effect on healthy cell line hTERT-HPNE (toxicity) [7]: appeared to affect

CC(=O)N[C@@H](CSc1nc2c(=O)[nH]c(N)nc2n1Cc1ccc(F)cc1)C(=O)O [compound 5]
impact on the growth of cancer cells [1]: no discernible impact | EC50 [1, 9]: > 5000 µM | EC50 [2]: > 5000 µM | effect on healthy cell line IMR90 (toxicity) [2]: without exhibiting toxicity | EC50 [3, 11]: > 5000 µM | EC50 [7]: 3510 ± 1450 µM | effect on healthy cell line hTERT-HPNE (toxicity) [7]: appeared to affect

CCN(CC)CCCC(C)Nc1ccnc2cc(Cl)ccc12 (stereo not drawn) [chloroquine, reference compound]
LC3-II level (LC3-II in KP4 cells): increase in LC3-II levels
